{"source": "patent USRE42394E1", "about": "“Fungicidal compositions for the enhancement of turf quality” (Bayer CropScience Inc., priority 1995, dated 2011)", "system": "bentgrass cultivar “Penncross”", "experiment": "Turf quality and color ratings on fungicide-treated bentgrass field plots (decline from crown and root rot)", "format": "in vivo", "details": "summary statements of the text on the field tests", "protocol": "Fungicides were evaluated on a one-year-old stand of the bentgrass cultivar “Penncross” planted in Raleigh, N.C., U.S.A. The bentgrass was planted in native soil and maintained under conditions similar to a golf green with a mowing height of 0.635 cm (.25 inches).\nThe fungicides were applied separately and in combination at labelled rates to 1.5 m×1.5 m (5 ft×5 ft) plots of bentgrass prior to evidence of any decline in turf quality due to crown and root rot. A CO2 backpack sprayer was used to apply the fungicide treatments at (30 lbs psi) using TEEJET™ 8004 nozzles to apply 9.5 liters (2.5 gallons) of fungicide dilutions per 93 square meters (1000 sq ft). The fungicides were initially applied and subsequently reapplied according to a 14 day schedule. In some experiments, an electrical pump sprayer was used to apply the treatments at 30 psi using a Teejet 8004 nozzle.\nTurf quality, color and percent disease ratings were recorded weekly, based on a scale from 1-9, with 9 being ideal turf quality and color and 1 being all turf dead. The percent disease ratings were calculated based on the percent of area in each plot showing symptoms of brown patch. Turf quality and color ratings were used as an indicator of the health of the bentgrass and the amount of decline associated with crown and root rot."}
{"smiles": "[Cu+2].c1ccc2c(c1)-c1nc-2nc2[n-]c(nc3nc(nc4[n-]c(n1)c1ccccc41)-c1ccccc1-3)c1ccccc21", "note": "[Pigment Blue 15]", "values": [{"measurement": "turf quality and color, comparison in words", "result": "enhances the activity of the ALIETTE™ and mancozeb in a synergistic interaction"}]}
